Data reported in US9790178B2, “Pyrrolidinyl urea, thiourea, guanidine and cyanoguanidine compounds as TrkA kinase inhibitors” (Array BioPharma Inc., priority 2012, dated 2017).

Target: T1, His-tagged recombinant human TrkA (Homo sapiens, UniProt P04629)
T1 construct: 6HIS tagged cytoplasmic domain from Invitrogen, Catalog No. PV3144; purchased Invitrogen PV3144
Experiment: TrkA LanthaScreen Eu Kinase Binding Assay
Settings: averaged IC50 values; read-out: TrkA enzyme IC50
Experimental: TrkA binding activity was determined in a TrkA LanthaScreen™ Eu Kinase Binding Assay. 5 nM His-tagged recombinant human TrkA (6HIS tagged cytoplasmic domain from Invitrogen, Catalog No. PV3144) was incubated with 4 nM Alexa-Fluor® Tracer 236 (Invitrogen Cat. No. PV5592), 2 nM biotinylated anti-His (Invitrogen Cat. No. PV6090), and 2 nM europium-labeled Streptavidin (Invitrogen Cat. No. PV5899), in buffer (25 mM MOPS, pH 7.5, 5 mM MgCl2, 0.005% Triton X-100). Three fold serial dilutions of compounds of the invention in DMSO were added to a final percentage of 2% DMSO. After 60-minute incubation at 22° C., the reaction was measured using the EnVision mutlimode plate reader (PerkinElmer) via TR-FRET dual wavelength detection at […]. The percent of control was calculated using a ratiometric emission factor. The IC50 values were determined by fitting a four parameter model to the percent of control data.
Table A provides averaged IC50 values for compounds of the invention when tested in the assay of Example A, where A represents an averaged IC50 value <100 nM; and B represents an averaged IC50 value from 100 to 1,000 nM.

T1 sequence (P04629 440-796 limits assumed): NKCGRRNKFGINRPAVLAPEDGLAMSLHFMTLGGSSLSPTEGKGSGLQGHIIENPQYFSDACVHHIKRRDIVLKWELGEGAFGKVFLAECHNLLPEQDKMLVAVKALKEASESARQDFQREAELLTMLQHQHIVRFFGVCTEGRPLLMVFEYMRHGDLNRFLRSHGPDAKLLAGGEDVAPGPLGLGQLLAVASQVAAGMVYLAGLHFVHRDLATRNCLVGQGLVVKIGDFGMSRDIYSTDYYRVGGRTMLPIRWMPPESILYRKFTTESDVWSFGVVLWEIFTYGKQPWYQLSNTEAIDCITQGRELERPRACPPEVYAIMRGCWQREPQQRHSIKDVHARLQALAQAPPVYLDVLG

| IC50 [nM] | SMILES |
| --- | --- |
| 100 to 1000 | COCCN1C[C@@H](NC(=O)Nc2cccc3cn[nH]c23)[C@H](c2ccccc2)C1 (relative stereo) [Example 1, 1-(1H-indazol-7-yl)-3-(trans-1-(2-methoxyethyl)-4-phenylpyrrolidin-3-yl)urea di-trifluoroacetate] |
| 100 to 1000 | COCCN1C[C@@H](NC(=O)Nc2ccc(C)c3cn[nH]c23)[C@H](c2ccccc2)C1 (relative stereo) [Example 2, 1-(trans-1-(2-methoxyethyl)-4-phenylpyrrolidin-3-yl)-3-(4-methyl-1H-indazol-7-yl)urea di-trifluoroacetate] |
| < 100 | COCCN1C[C@@H](NC(=O)Nc2cccc3c(Br)n[nH]c23)[C@H](c2ccccc2)C1 (relative stereo) [Example 3, 1-(3-bromo-1H-indazol-7-yl)-3-(trans-1-(2-methoxyethyl)-4-phenylpyrrolidin-3-yl)urea] |
| < 100 | COCCN1C[C@@H](NC(=O)Nc2cccc3c(-c4ccccc4)n[nH]c23)[C@H](c2ccccc2)C1 (relative stereo) [Example 4, 1-(trans-1-(2-methoxyethyl)-4-phenylpyrrolidin-3-yl)-3-(3-phenyl-1H-indazol-7-yl)urea] |
| 100 to 1000 | COCCN1C[C@@H](NC(=O)Nc2c(-c3ccccc3)nc3sc(C)cn23)[C@H](c2ccccc2)C1 (relative stereo) [Example 5, 1-((trans)-1-(2-methoxyethyl)-4-phenylpyrrolidin-3-yl)-3-(2-methyl-6-phenylimidazo[2,1-b]thiazol-5-yl)urea] |
| < 100 | COCCN1C[C@@H](NC(=O)Nc2c(-c3ccccc3)nc3ccccn23)[C@H](c2ccccc2)C1 (relative stereo) [Example 6, 1-((trans)-1-(2-methoxyethyl)-4-phenylpyrrolidin-3-yl)-3-(2-phenylimidazo[1,2-a]pyridin-3-yl)urea] |
| < 100 | COCCN1C[C@@H](NC(=O)Nc2c(-c3ccccc3)nc3ncccn23)[C@H](c2ccccc2)C1 (relative stereo) [Example 7, 1-((trans)-1-(2-methoxyethyl)-4-phenylpyrrolidin-3-yl)-3-(2-phenylimidazo[1,2-a]pyrimidin-3-yl)urea] |
| < 100 | COCCN1C[C@@H](NC(=O)Nc2c(-c3ccccc3)nc3scnn23)[C@H](c2ccccc2)C1 (relative stereo) [Example 8, 1-((trans)-1-(2-methoxyethyl)-4-phenylpyrrolidin-3-yl)-3-(6-phenylimidazo[2,1-b][1,3,4]thiadiazol-5-yl)urea] |
| < 100 | COCCN1C[C@@H](NC(=O)Nc2c(-c3ccccc3)nc3sccn23)[C@H](c2ccccc2)C1 (relative stereo) [Example 9, 1-((trans)-1-(2-methoxyethyl)-4-phenylpyrrolidin-3-yl)-3-(6-phenylimidazo[2,1-b]thiazol-5-yl)urea] |
| < 100 | COCCN1C[C@@H](NC(=O)Nc2c(-c3ccccc3)nc3cnccn23)[C@H](c2ccccc2)C1 (relative stereo) [Example 10, 1-((trans)-1-(2-methoxyethyl)-4-phenylpyrrolidin-3-yl)-3-(2-phenylimidazo[1,2-a]pyrazin-3-yl)urea] |
| < 100 | COCCN1C[C@@H](NC(=O)Nc2c(-c3ccccc3)nc3c(C)cccn23)[C@H](c2ccccc2)C1 (relative stereo) [Example 11, 1-((trans)-1-(2-methoxyethyl)-4-phenylpyrrolidin-3-yl)-3-(8-methyl-2-phenylimidazo[1,2-a]pyridin-3-yl)urea] |
| < 100 | COCCN1C[C@@H](NC(=O)Nc2c(-c3ccccc3)nc3cc(C)ccn23)[C@H](c2ccccc2)C1 (relative stereo) [Example 12, 1-((trans)-1-(2-methoxyethyl)-4-phenylpyrrolidin-3-yl)-3-(7-methyl-2-phenylimidazo[1,2-a]pyridin-3-yl)urea] |
| 100 to 1000 | COCCN1C[C@@H](NC(=O)Nc2c(-c3ccccc3)nc3ccc(C)cn23)[C@H](c2ccccc2)C1 (relative stereo) [Example 13, 1-((trans)-1-(2-methoxyethyl)-4-phenylpyrrolidin-3-yl)-3-(6-methyl-2-phenylimidazo[1,2-a]pyridin-3-yl)urea] |
| < 100 | COCCN1C[C@@H](NC(=O)Nc2c(-c3ccccc3)nc3c(Cl)cccn23)[C@H](c2ccccc2)C1 (relative stereo) [Example 14, 1-(8-chloro-2-phenylimidazo[1,2-a]pyridin-3-yl)-3-((trans)-1-(2-methoxyethyl)-4-phenylpyrrolidin-3-yl)urea] |
| < 100 | COCCN1C[C@@H](NC(=O)Nc2c(-c3ccccc3)nc3c(C(F)(F)F)cccn23)[C@H](c2ccccc2)C1 (relative stereo) [Example 16, 1-((trans)-1-(2-methoxyethyl)-4-phenylpyrrolidin-3-yl)-3-(2-phenyl-8-(trifluoromethyl)imidazo [1,2-a]pyridin-3-yl)urea] |
| < 100 | COCCN1C[C@@H](NC(=O)Nc2c(-c3ccccc3)nc3ccc(F)cn23)[C@H](c2ccccc2)C1 (relative stereo) [Example 17, 1-(6-fluoro-2-phenylimidazo[1,2-a]pyridin-3-yl)-3-((trans)-1-(2-methoxyethyl)-4-phenylpyrrolidin-3-yl)urea] |
| < 100 | COCCN1C[C@@H](NC(=O)Nc2c(-c3ccccc3)[nH]c3ccccc23)[C@H](c2ccccc2)C1 (relative stereo) [Example 26, 1-((trans)-1-(2-methoxyethyl)-4-phenylpyrrolidin-3-yl)-3-(2-phenyl-1H-indol-3-yl)urea] |
| < 100 | COCCN1C[C@@H](NC(=O)Nc2c(-c3ccccc3)nc3c(C)cccn23)[C@H](c2ccccc2)C1 [Example 15, 1-((3S,4R)-1-(2-methoxyethyl)-4-phenylpyrrolidin-3-yl)-3-(8-methyl-2-phenylimidazo[1,2-a]pyridin-3-yl)urea] |
| < 100 | COCCN1C[C@@H](NC(=O)Nc2c(-c3ccccc3)nc3c(F)cccn23)[C@H](c2ccccc2)C1 [Example 18, 1-(8-fluoro-2-phenylimidazo[1,2-a]pyridin-3-yl)-3-((3S,4R)-1-(2-methoxyethyl)-4-phenylpyrrolidin-3-yl)urea] |
| < 100 | COCCN1C[C@@H](NC(=O)Nc2c(-c3ccccc3)nc3c(C)nccn23)[C@H](c2ccccc2)C1 [Example 19, 1-((3S,4R)-1-(2-methoxyethyl)-4-phenylpyrrolidin-3-yl)-3-(8-methyl-2-phenylimidazo[1,2-a]pyrazin-3-yl)urea] |
| < 100 | COCCN1C[C@@H](NC(=O)Nc2c(-c3ccccc3)nc3c(=O)[nH]ccn23)[C@H](c2ccc(F)c(F)c2)C1 [Example 21, 1-((3S,4R)-4-(3,4-difluorophenyl)-1-(2-methoxyethyl)pyrrolidin-3-yl)-3-(8-oxo-2-phenyl-7,8-dihydroimidazo[1,2-a]pyrazin-3-yl)urea] |
| < 100 | COCCN1C[C@@H](NC(=O)Nc2c(-c3ccccc3)nc3c(OC)nccn23)[C@H](c2ccc(F)c(F)c2)C1 [Example 22, 1-((3S,4R)-4-(3,4-difluorophenyl)-1-(2-methoxyethyl)pyrrolidin-3-yl)-3-(8-methoxy-2-phenylimidazo[1,2-a]pyrazin-3-yl)urea] |
| < 100 | COCCN1C[C@@H](NC(=O)Nc2c(-c3ccccc3)nc3c(C)nccn23)[C@H](c2cc(F)cc(F)c2)C1 [Example 23, 1-((3S,4R)-4-(3,5-difluorophenyl)-1-(2-methoxyethyl)pyrrolidin-3-yl)-3-(8-methyl-2-phenylimidazo[1,2-a]pyrazin-3-yl)urea] |
| < 100 | COCCN1C[C@@H](NC(=O)Nc2c(-c3ccccc3)nc3c(=O)n(C)ccn23)[C@H](c2ccc(F)c(F)c2)C1 [Example 24, 1-((3S,4R)-4-(3,4-difluorophenyl)-1-(2-methoxyethyl)pyrrolidin-3-yl)-3-(7-methyl-8-oxo-2-phenyl-7,8-dihydroimidazo[1,2-a]pyrazin-3-yl)urea] |
| < 100 | CCn1ccn2c(NC(=O)N[C@@H]3CN(CCOC)C[C@H]3c3ccc(F)c(F)c3)c(-c3ccccc3)nc2c1=O [Example 25, 1-((3S,4R)-4-(3,4-difluorophenyl)-1-(2-methoxyethyl)pyrrolidin-3-yl)-3-(7-ethyl-8-oxo-2-phenyl-7,8-dihydroimidazo[1,2-a]pyrazin-3-yl)urea] |
| < 100 | COCCN1C[C@@H](NC(=O)Nc2c(-c3ccccc3)nc3c(C)nccn23)[C@H](c2ccc(F)cc2)C1 [Example 27, 1-((3S,4R)-4-(4-fluorophenyl)-1-(2-methoxyethyl)pyrrolidin-3-yl)-3-(8-methyl-2-phenylimidazo[1,2-a]pyrazin-3-yl)urea] |
| 100 to 1000 | COCCN1C[C@@H](NC(=O)NC2=C(c3ccccc3)C(=O)c3ccccc32)[C@H](c2ccc(F)c(F)c2)C1 [Example 28, 1-((3S,4R)-4-(3,4-difluorophenyl)-1-(2-methoxyethyl)pyrrolidin-3-yl)-3-(1-oxo-2-phenyl-1H-inden-3-yl)urea] |
